System: erythrocytes (RBCs)
Assay: Proton induced uptake and efflux in erythrocytes (RBCs), flow cytometry
Assay type: cell-based
Experimental: As shown, PIU in erythrocytes depends on external pH in a constant rate. […] Flow cytometry analyses include FITC intensity geometrical mean±SD presented as fold induction relative to background. n=9 in 3 independent experiments.
RBCs were exposed to external pH 5.4 for time durations of 10, 15, 30, 45 and 60 minutes. […] Flow cytometry analyses in terms of geometrical mean±SD are presented as fold induction relative the fluorescent intensity in the first group (10 min). No statistical difference is found in PIU rate for the different groups (p >0.05 by one way ANOVA, n=9 in 3 independent experiments).
Flow cytometry analyses include FITC intensity geometrical mean±SD presented as fold induction relative to background. n=9 in 3 independent experiments.
The cells were washed and divided into 2 groups, suspended in fresh solution of either pH 7.4 or pH 5.4. Cells from each group were incubated for durations of 10, 20, 30, 45 and 60 minutes, before being analyzed by flow cytometry. Results given in terms of geometrical mean±SD are presented as fold induction relative to cells analyzed immediately following exposure to low pH. n=8 in 2 independent experiments.
Following treatment the cells were washed in PBS-G and analyzed by flow cytometry. Results are presented as geometrical mean of FITC intensity±SD for 50,000 cells per sample.
This apparent saturation may be attributed to a competitive efflux process. […] Next, the cells were washed and re-suspended in fresh PBS-G of either pH 7.4 or 5.4, in the absence of dextran and then incubated at 37° C. for durations of 10, 20, 30, 45 and 60 minutes, followed by flow cytometry analysis (FIG. 32B). Dextran concentrations in RBCs incubated under physiological conditions (pH 7.4) suffers some gradual 20% decrease in value for 60 minutes after PIPC(P<0.05, one tail t-test). However, when RBCs are incubated at pH 5.4, the dextran concentration decline rapidly during the first 10 minutes, losing 50% of their initial value after 20 minutes and continue to decrease at a declining rate for the rest of the period monitored. It appears that long exposure of RBCs to low pH inflict some damage to the cells ability to retain the uptake cargo molecule (FIG. 32b). In an exemplary embodiment of the invention, RBCs are instead subjected to a pulsed treatment regime. […] In an exemplary embodiment of the invention, pulsed uptake is used to avoid/reduce causing leakage in cells and thus reduce efflux. Optionally or alternatively, cells that are sensitive to low pH can be treated. For example, one hour exposures separated by two hour rest periods may be used for siRNA transfection of pH-sensitive cells. […]

Dextran-FITC
external pH at which uptake is significant relative to autofluorescence at pH 7.4 (70 kD dextran-FITC 10 μM, 5 minutes, P<0.05): < 6 pH | loss of initial intracellular dextran concentration after loading (incubated at pH 5.4, 37° C., after 20 minutes): 50% | decrease of intracellular dextran concentration after loading (incubated at pH 7.4, 37° C., 60 minutes after 10 minutes loading at pH 5.4): 20% | intracellular concentration after three cycles of 10 minutes exposure versus one exposure of 30 minutes (low pH solution, cycles separated by washing and 10 minutes in PBS-G): higher concentration

From patent US20130004581A1, “CONTROLLING UPTAKE BY CELLS” (Ramot at Tel-Aviv University Ltd., priority 2010, published 2013)
